Experimental data from patent publication US9332753B2, “Plant volatiles based on R-curcumene” (Keygene N.V., priority 2009, dated 2016).
Entries after “also recorded” stand apart in the source; their conditions may differ.

What was measured:
B. tabaci [1] = assay: Correlation of identified headspace volatiles with whitefly repellence ranking (stepwise linear regression, MANOVA); set-up: species or system Bemisia tabaci biotype Q; details: for Effect (semiochemical associated to B. tabaci repellence or attraction): first Table 5; for association (B. tabaci repellence or attraction): second Table 5; for Effect on insects: volatile related to whitefly repellence or attraction (Table 1)
Excerpt: In a large experiment (see Example 2), the headspace of 16 wild tomato accessions and 5 cultivated tomato lines were sampled and analyzed (6 repeats). In total 51 compounds were identified to be present in the captured headspace. Furthermore, the level of repellency/attraction of each of the 21 tomato accessions was established in free choice bioassays with B. tabaci (biotype Q), using a ranking scale of 1-7 (1=highest repellency to 7=lowest repellency). Next, the identified volatile compounds were correlated to the repellency/attraction score of each tomato accession through a linear regression analysis.
The headspace of 16 wild tomatoes and 5 cultivated tomatoes (Table 4) was collected. Undisturbed 3-weeks old tomato plants were transferred to 40-L desiccators. The headspace was sampled during 24 h including a 16 h light period, by trapping of the volatile components as described above. […] Each accession was sampled 6 times.
In a statistical analysis the correlation between the identified components of the tomato headspace and the ranking of whitefly repellence measured in the bioassays was made. Using two approaches, a stepwise-linear regression analysis and a MANOVA, 8 volatiles were identified to be correlated to whitefly repellence, whereas 24 other volatile compounds were eliminated as non-relevant for repellency or attraction.

B. tabaci [2] = assay: Free choice bioassay with pure volatiles or mixtures added to one of four cv Moneymaker plants; type: in vivo, Bemisia tabaci biotype Q (Almeria population); details: for effect on whitefly behaviour: one of four Moneymaker plants treated; for behavioural effect (significance of effect on B. tabaci behaviour in choice-assays): significance stars, key not given
Excerpt: For bioassays with headspace (total headspace or single compounds) four potted tomato plants (S. esculentum cv Moneymaker) were placed in a square setup at a distance of 50 cm. One hundred and fifty adult whiteflies were released and recorded as described above. To test the effect of selected headspace components on repellence, synthetic standards (FLUKA) were applied to either 10 filter-papers discs (Whatman, 25 mm diameter) or 10 rubber septa (Sigma Aldrich, Z167258). Prior to loading, the septa were placed in CH2Cl2 for 24 h and air-dried for 3 days (Heath et al., 1986). The paper discs or septa containing volatiles were attached to one of the four plants with metal wire. The position of the treated tomato was randomised. Five minutes after placing the volatiles on the plant, whiteflies were released. For each component at least 8 replications were carried out. Treatments were administered in a setup in which compounds were always added to the same plant in comparison to 3 plants with empty carriers. Prior to each assay with volatiles, the experiment was done with the 4 plants in an untreated setup, in the same position to allow comparison in the same background.
Host preference with and without manipulated headspace by B. tabaci was explored in free choice assays. In each setup four cultivated tomatoes (cv. Moneymaker) were tested as described earlier. For the bioassays with volatiles rubber septa (Sigma Aldrich Z167258) were extracted with CH2Cl2 for 24 hours and dried to the air for 3 days. The desired blend of volatiles was added to the rubber septa in 100 μl hexane. Bioassays with pure components, or mixtures of pure components were carried out as described above.
To positively confirm the correlation between the 7 candidate components and B. tabaci behaviour, host preference was assayed in bioassays with pure components. The desired (blend of) pure volatile chemicals were added, as described above, to the Moneymaker background on filter paper cards. […] The percentage of whiteflies visiting the treated plant decreased with 44% on average (p<0.001) (FIG. 2a) while the untreated plants harboured increased numbers of B. tabaci. […] To assess whether the sum of these three components would yield a greater effect than p-cymene alone, a mixture of p-cymene: gamma-terpinene: beta-myrcene in the same ratio as found in accession LA2560 (1:12:3) was tested. […] Finally, the sesquiterpenes were tested, tomato-derived 7-epi-zingiberene as well as its oxidation product R-curcumene, and zingiberene and its oxidation product S-crucume.

[3] = Conversion on exposure to air; type: physicochemical
B. tabaci antennae = assay: Electroantennography (EAG); set-up: species or system Bemisia tabaci
Method: Electroantennography (EAG) was employed to confirm the responsiveness of the atennae to 10-3 dilution in paraffin oil (Uvasol, Merck) of the chemicals described. Small pieces of filter paper (2 cm2; Schleicher & Schuell, Dassel, Germany) were soaked with 100 μl of the standard dilution or paraffin oil only (control). The filter paper was inserted into a 10-ml glass syringe (Poulten & Graf GmbH, Wertheim, Germany). A reproducible stimulus was supplied by puffing 5 ml of air over the antenna (Schutz et al., 1999). The EAG response was recorded for each standard dilution. The response to paraffin oil was considered as a negative control and was subtracted from all the reported EAG measurements.

[4] = tested on: adult whiteflies B. tabaci; details: cited from earlier work
[5] = tested on: fourth instar larvae of Colorado potato beetle; details: cited from earlier work
[6] = tested on: pests of cut flowers (e.g. B. tabaci); details: fumigant, 10-20 mg/l, after 2-4 hours of exposure; cited from earlier work
[7] = n = 5, mean response and scatter, 10^-3 dilution in paraffin oil
[8] = responses of B. tabaci antennae

SMILES	Effect (semiochemical associated to B. tabaci repellence or attraction) (B. tabaci [1])	association (B. tabaci repellence or attraction) (B. tabaci [1])	Effect on insects (B. tabaci [1])	effect on whitefly behaviour (B. tabaci [2])	stability when exposed to air [3]	antennal response (B. tabaci antennae; [7])	antennal response (B. tabaci antennae; [8])	correlation with repellence or attraction of tomato accessions (B. tabaci [1])	decrease of percentage of whiteflies visiting the treated plant (B. tabaci [2]; on average, vs same plant in untreated setup, p-cymene 10 μg, mixture ratio 1:12:3) [%]	antennal recognition / sensitivity (B. tabaci antennae; electroantennography)	toxic effect [4]	behavioural effect (significance of effect on B. tabaci behaviour in choice-assays) (B. tabaci [2])	toxic effect [5]	mortality [6]
CC(C)=CCC[C@H](C)[C@@H]1C=CC(C)=CC1 [zingiberene]	repellence	repellence	Repellent	did not appear to be repelled	rapidly converted to R- and S-curcumene respectively	21 (5-30) μV	2.1 mV	–	–	–	–	–	–	–
Cc1ccc(C(C)C)cc1 [para-cymene]	repellence	repellence	Repellent	–	–	–	2.4 mV	repellent compounds linked to S. pennelli	44	–	–	–	–	–
CC(C)=CCC[C@@H](C)c1ccc(C)cc1 [R-curcumene]	repellence	repellence	Repellent	clear repellent effect; also recorded: repelled	–	50 (8-148) μV	5.0 mV	appear to be responsible for rendering the S. habrochaites (former typicum) more unattractive	–	highest sensitivity	–	–	–	–
CCCCCCCCCCCC(C)=O [2-tridecanone]	–	–	–	–	–	–	–	–	–	–	toxic effect	–	–	–
C=C(C)[C@H]1CC=C(C)CC1 [limonene]	attraction	attraction	Attractant	–	–	–	3.5 mV	significantly correlated to the more attractive cultivated S. lycopersicum plants	–	–	–	ns	–	–
CC1=CCC(C(C)C)C=C1 (stereo not drawn) [Alpha-phellandrene]	–	repellence	Repellent	–	–	–	2.2 mV	repellent compounds linked to S. pennelli	–	–	–	–	–	–
CC1=CC=C(C(C)C)CC1 [Alpha-terpinene]	–	repellence	Repellent	–	–	–	4.1 mV	repellent compounds linked to S. pennelli	–	–	–	–	–	–
CC(C)=CCC[C@@H](C)[C@@H]1C=CC(C)=CC1 [7-epi-zingiberene]	repellence	repellence	Repellent	clear repellent effect; also recorded: very effective in reducing the number of whitefly visitations	rapidly converted to R- and S-curcumene respectively	23 (0-53) μV	2.3 mV	appear to be responsible for rendering the S. habrochaites (former typicum) more unattractive	–	–	–	–	–	–
CC1=CC2C(CC1)C2(C)C (stereo not shown) [2-carene]	attraction	attraction	Attractant	–	–	–	3.9 mV	significantly correlated to the more attractive cultivated S. lycopersicum plants	–	–	–	ns	–	–
CC(C)=CCC[C@H](C)c1ccc(C)cc1 [S-curcumene]	repellence	repellence	Repellent	did not appear to repel	–	27 (3-60) μV	2.7 mV	–	–	–	–	–	–	–
CCCCCCCCCC(C)=O [2-undecanone]	–	–	–	–	–	–	–	–	–	–	–	–	toxic effect	–
C=CC(=C)CCC=C(C)C [beta-myrcene]	repellence	repellence	Repellent	did not influence whitefly behaviour	–	–	ns	repellent compounds linked to S. pennelli	–	–	–	ns	–	–
CC1=CCC(C(C)C)=CC1 [gamma-terpinene]	repellence	repellence	Repellent	–	–	–	1.9 mV	repellent compounds linked to S. pennelli	–	–	–	ns	–	–
C=CCc1ccc2c(c1)OCO2 [safrole]	–	–	–	–	–	–	–	–	–	–	–	–	–	caused mortality
CC12CCC(CC1)C(C)(C)O2 [Cineole]	–	–	–	–	–	–	–	–	–	–	–	–	–	caused mortality
C=C1C=CC(C(C)C)CC1 (stereo not drawn) [beta-phellandrene]	attraction	attraction	Attractant	decreased tomato attractiveness significantly	–	–	2.5 mV	significantly correlated to the more attractive cultivated S. lycopersicum plants	–	–	–	ns	–	–
